In patent US20220096561A1, “INHIBITING OR ALLEVIATING AGENT FOR INFLAMMATION IN THE BRAIN” (NIPPON ZOKI PHARMACEUTICAL CO., LTD., priority 2019, published 2022):

What was measured:
Assay type in all cases: cell-based, murine
BV-2 cell [1] = assay: IL-1β, IL-6, TNF-α expression in LPS-treated BV-2 cells; conditions: LPS + NTP, pre-treated with 10 uM ANA12 1 h before NTP, FIG. 6A-C
Protocol: (§1) Immortal BV-2 murine microglial cells, a gift from Dr. Ying Chen of Sun Yat-sen Memorial Hospital, Sun Yat-sen University were cultured as described (refer Non-Patent Document 2). BV-2 cultures were treated with 0.1 NU/mL NTP, then given lipopolysaccharides (1000 ng/mL, LotL2880, O55:B5, Sigma-Aldrich, St. Louis, Mo., USA) 12 h later.

BV-2 cell [2] = assay: p-p65 and p-IκB-α expression in LPS-stimulated cells; conditions: LPS + NTP + ANA-12, FIG. 6F-H
Protocol: as §1
Western blotting and semi-quantitative analyses were performed following previously described procedures (refer Liao W, Jiang M J, Li M, Jin C L, Xiao S H, Fan S N, Fang W L, Zheng Y Q and Liu J. Magnesium Elevation Promotes Neuronal Differentiation While Suppressing Glial Differentiation of Primary Cultured Adult Mouse Neural Progenitor Cells through ERK/CREB Activation. Frontiers in Neuroscience 2017; 11:). In brief, proteins in cerebral cortex and hippocampus were extracted with lysis buffer for 30 min, followed by centrifugation at 14,000 rpm for 15 min at […] to obtain the supernatant for western blot analysis. Primary antibodies and dilution rates used were listed as follow: NF-κB (p65), 1:1000; p-IκBα, 1:500 and β-actin, 1:1000. Primary antibodies against NF-κB (p65), p-IκBα and β-actin were purchased from Cell Signaling Technology Inc (MA, USA). […] The quantification of protein expression was analyzed by Image J (National Institutes of Health, Md., USA).

BV-2 cell [3] = assay: BDNF level in LPS-treated BV-2 cells; conditions: LPS + NTP + ANA12, FIG. 6E
Protocol: as §1

O=C(Nc1ccccc1C(=O)NC1CCCCNC1=O)c1cc2ccccc2s1 (stereo not drawn) [ANA12]
expression of IL-1β (BV-2 cell [1]): increased after ANA12 administration
expression of IL-6 (BV-2 cell [1]): increased after ANA12 administration
expression of TNF-α (BV-2 cell [1]): increased after ANA12 administration
activation of p-IκB-α (BV-2 cell [2]): abolished by ANA-12
activation of p-P65 (BV-2 cell [2]): abolished by ANA-12
effect of NTP on BDNF (BV-2 cell [3]): abolished by ANA12
